{
  "source": "patent US20240335462A1",
  "about": "“SULFUR/PHOSPHORUS-CONTAINING ARYL COMPOUND AND APPLICATION THEREOF” (MEDSHINE DISCOVERY INC., priority 2021, published 2024)",
  "note": "pIC50: −log10 of the molar value.",
  "data": [
    {"system": "Ba/F3-TEL-TYK2 cells", "assay": "Proliferation of Ba/F3-TEL-TYK2 cells (CellTiter-Glo)", "type": "cell-based", "settings": "72 hours, read-out: Half maximal inhibitory concentration IC50 for cells Ba/F3-TEL-TYK2", "source_text": "Adenosine triphosphate (ATP) serves as a universal energy carrier in various life processes, representing the smallest unit of energy storage and transfer. The CellTiter-Glo™ Luminescent Cell Viability Assay Kit utilizes luciferase as a detection agent. During the luminescent process, luciferase requires the participation of ATP. By adding CellTiter-Glo™ reagent to the cell culture medium and measuring the luminescence, the light signal was directly proportional to the amount of ATP in the system, and ATP was positively correlated with the number of viable cells. Therefore, cell proliferation can be detected by measuring ATP content using the CellTiter-Glo kit. In this test, the cell lines used were Ba/F3-FL-TYK2-E957D and Ba/F3-TEL-TYK2. Ba/F3-FL-TYK2-E957D cells can stably express the exogenously introduced human TYK2-E957D gene, and the TYK2-E957D gene sequence contains both JH1 and JH2 domains. On the other hand, Ba/F3-TEL-TYK2 cells can stably express the exogenously introduced human TEL-TYK2 gene, and the TEL-TYK2 gene sequence contains only the JH1 domain of TYK2.\nThe cell lines were cultured in an incubator at 37° C. with 5% CO2. Regular passaging was performed, and cells in the logarithmic growth phase were selected for plating.\n• a) The test compounds were prepared into a 10 mM solution with DMSO, and then diluted to 0.3 or 1 mM with DMSO. • b) Preparation of 1000× compound storage plate (tube): The compounds were 3-fold serially diluted from the highest concentration to the lowest concentration, creating 9 different concentrations. • c) Preparation of 20× compound working solution: 49 μL of cell culture medium was added to a flat-bottomed 96-well transparent drug plate. From the 1000× compound storage plate, 1 μL of the compound was pipetted into the cell culture medium in the 96-well transparent drug plate. In the solvent control, 1 μL of DMSO was added. After the compound or DMSO was added, the mixture was homogenized using a multi-channel pipette.\n• a) Cells were stained with trypan blue and viable cells were counted to ensure a cell viability of 90% or more. • b) 95 μL of cell suspension (2000 cells/well) was added to each well of the compound assay cell plate, and cell-free culture medium containing 0.1% DMSO was added to the Min control wells. • c) Administration in the compound assay cell plate: 5 μL of 20× compound working solution was added to the cell culture plate. 5 μL of DMSO-cell culture medium mixture was added to the Max control wells. The final concentration of DMSO was 0.1%. • d) The culture plate was then incubated in an incubator at 37° C. with 5% CO2 for 72 hours.\nThe following steps were conducted in accordance with the instructions of the Promega CellTiter-Glo Luminescent Cell Viability Assay Kit (Promega-G7573). • a) CellTiter-Glo buffer was thawed and brought to room temperature. • b) CellTiter-Glo substrate was also brought to room temperature. • c) CellTiter-Glo buffer was added to a bottle of CellTiter-Glo substrate to dissolve the substrate, thereby preparing CellTiter-Glo working solution. • d) The mixture was slowly vortexed and shaken to be fully dissolved. • e) The cell culture plate was removed and allowed to equilibrate to room temperature for 10 minutes. • f) 50 μL (equal to half the volume of cell culture medium in each well) of CellTiter-Glo working solution was added to each well. • g) The culture plate was shaken on an orbital shaker for 2 minutes to induce cell lysis. • h) The plate was then left at room temperature for 10 minutes to stabilize the luminescent signal. • i) The luminescent signal was detected using a SpectraMax Paradigm plate reader.\nData analysis was conducted using GraphPad Prism 5.0 software. Nonlinear S-curve regression was employed to fit the data and generate dose-response curves. From these curves, the IC50 values were calculated.", "values": [
      {"smiles": "CNC(=O)c1nnc(NC(=O)C2CC2)cc1Nc1cccc(-c2ncc(S(=N)(=O)C(C)C)cn2)c1OC", "note": "(single isomer, unassigned) [WX-011A]", "pIC50": "< 5.00"},
      {"smiles": "CNC(=O)c1nnc(NC(=O)C2CC2)cc1Nc1cccc(-c2ncc(S(=N)(=O)C(C)C)cn2)c1OC", "note": "(single isomer, unassigned) [WX-011B]", "pIC50": "< 5.00"},
      {"smiles": "CNC(=O)c1nnc(NC(=O)C2CC2)cc1Nc1cccc(-c2ccc(S(=N)(=O)C(C)C)cn2)c1OC", "note": "(single isomer, unassigned) [WX-012A]", "pIC50": "< 5.00"},
      {"smiles": "CNC(=O)c1nnc(NC(=O)C2CC2)cc1Nc1cccc(-c2ccc(S(=N)(=O)C(C)C)cn2)c1OC", "note": "(single isomer, unassigned) [WX-012B]", "pIC50": "< 5.00"},
      {"smiles": "CNC(=O)c1cnc(NC(=O)C2CC2)cc1Nc1cccc(-c2ccc(S(=O)(=O)C(C)C)cn2)c1OC.Cl", "note": "[Hydrochloride of WX-020]", "pIC50": "< 5.00"},
      {"smiles": "CNC(=O)c1cnc(NC(=O)C2CC2)cc1Nc1cccc(-c2ncc(S(=O)(=O)C(C)C)cn2)c1OC", "note": "[WX-019]", "pIC50": "< 5.00"},
      {"smiles": "CNC(=O)c1nnc(NC(=O)C2CC2)cc1Nc1cccc(-c2ccc(P(=O)(C3CC3)C3CC3)cn2)c1OC", "note": "[WX-021]", "pIC50": "< 5.00"}
    ]}
  ]
}
